Experiment [1] deals with differentiated 3T3-L1 cells. Kind of experiment: Inhibition of isoproterenol-induced lipolysis by QRFP, and its antagonism by compounds, in an adipocyte cell line model (glycerol release). In kind it is cell-based, mouse. To be noted: for IC50 of QRFP-26 (inhibition of isoproterenol-induced lipolysis), shifted in presence of compound: 100 nM isoproterenol; for effect on the inhibitory effect of QRFP on isoproterenol-induced lipolysis: compound at 10^−9 to 10^−7 M. The protocol: The effectiveness of compounds of the invention to antagonize the QRFP-induced inhibition of isoproterenol-induced lipolysis was investigated using an adipocyte cell line model.
Cells were then were maintained in DMEM with 10% FBS for 2 days before lipolysis study.
All the cellular assays were performed in triplicate for each time point if not otherwise specified.
Differentiated 3T3-L1 cells were first washed with DMEM and incubated with DMEM containing 200 nM adenosine for 1 h at 37° C. The incubation medium was then removed. The lipolysis was induced by incubating the cells with DMEM supplemented with 2% bovine serum albumin fatty acid free and adenosine deaminase (1 U/mL) containing 100 nM of isoproterenol for 90 min at 37° C. The incubation medium (600 μL) was collected for glycerol assay following triglyceride hydrolysis.
After the incubation period, the incubation medium (600 μL) was collected for free glycerol measurement.
To document the antagonistic effect of compounds of the invention on the antilipolytic effect of QRFP, the dose-response curve of QRFP was carried out as described above in presence of selected compounds of the invention at 10^−9 to 10^−7 M. To document the net effect of QRFP and selected compounds of the invention on lipolysis induced by isoproterenol as control, cells were incubated in absence of isoproterenol in presence of QRFP or selected compounds of the invention at 10^−6 M.
Glycerol released was calculated as μmol/mg of total protein.
Lipolysis index was calculated as: (μmol of glycerol released/mg of protein of sample minus μmol of glycerol released/mg of protein in basal condition)/(μmol of glycerol released/mg of protein induced by 100 nM of isoproterenol minus μmol of glycerol released/mg of protein of basal condition).

The test system of experiment [2] is male C57BL/6J mice. Kind of experiment: Fasting-induced feeding behavior (food intake) of mice. In kind it is in vivo. The following applies: oral dose 2 μmol per mouse, 30 min before food. The protocol:
The effectiveness of selected compounds of the invention on fasting-induced feeding behavior of mice was investigated.
The experiments were performed according to Asakawa A et al. (Asakawa A et al., Gut 2003, 52: 947-952) with the following technical details:
Preparation of compounds of the invention: dissolved in dimethylsulfoxide (DMSO) and then diluted in distilled water (i.e. 0.5, 1 and 10% DMSO for 0.5, 1 and 2 μmol/mouse, respectively);
Preparation of reference substance (positive control) sibutramine: dissolved in distilled water;
Control substance (negative vehicle control): 10% DMSO in distilled water (compounds of the invention); distilled water (sibutramine);
Route of administration: p.o.;
Pretreatment time: 30 min before presenting the food to the animals;
Volume of administration: 0.5 ml/mouse;
Animals: male C57BL/6J mice;
Body weight range: 18.3-21.4 g

The subject of experiment [3] is C57BL/6 male mice fed a high-fat diet. Kind of experiment: Diet-induced obesity (DIO) in mice, subchronic s.c. treatment. In kind it is in vivo, mouse. The following applies: for Fat mass / Food efficiency / Lean mass / Σ Fat depots / Body weight gain / Cumulative food intake / Glucose / Insulin: 2 weeks; for Body weight gain / Cumulative food intake: difference day 35 vs day 21; for Glucose / Insulin: plasma. The protocol: The effectiveness of selected compounds of the invention, i.e. their subchronic effects, on the energy balance of mice rendered obese by a high-fat diet was investigated.
Adult C57BL/6 male mice were fed ad libitum with either chow or a high-fat diet (60% of the calorie content from fat) for 5 weeks.
C57BL/6 mice fed with a high-fat diet readily develop obesity and represent a widely used model for investigating human obesity.
One-third of the dose was injected in the morning and two-third in the evening.
Body weight and food intake were monitored every day during the experiment. Body composition (lean and fat mass) was assessed using dual energy x-ray absorptiometry (DEXA) on day 0, 13 and 27. Blood was also sampled at sacrifice for the determination of plasma glucose, insulin and triglycerides.

Experiment [4] relates to male C57BL/6J mice. Kind of experiment: Fasting-induced feeding behavior (food intake) of mice. In kind it is in vivo. To be noted: po.
The mark [5] stands for this setting: 20 min, read-out: change of food intake - compounds versus vehicle treated negative control, at 20 min.
[6] abbreviates: 1 h, read-out: change of food intake - compounds versus vehicle treated negative control, at 1 h.
The mark [7] stands for this setting: 2 h, read-out: change of food intake - compounds versus vehicle treated negative control, at 2 h.
Setting [8] is: 4 h, read-out: change of food intake - compounds versus vehicle treated negative control, at 4 h.

Like-named read-outs stand apart in the source and are kept apart here.

As for `CC(C)(N)C(=O)N[C@H](Cc1c[nH]c2ccccc12)c1nnc(Cc2ccccc2)n1Cc1ccccn1` [Compound 39, (R)-N-(1-(5-benzyl-4-(pyridin-2-ylmethyl)-4H-1,2,4-triazol-3-yl)-2-(1H-indol-3-yl)ethyl)-2-amino-2-methylpropanamide], the “IC50 of QRFP-26 (inhibition of isoproterenol-induced lipolysis), shifted in presence of compound” value in experiment [1] (compound at 10^−7 M) is 6.9 nM; in experiment [1] (compound at 10^−8 M), 6.6 nM; in experiment [1] (compound at 10^−9 M), 5.6 nM. Further, the “effect on the inhibitory effect of QRFP on isoproterenol-induced lipolysis” value in experiment [1] is reported as “non-competitive antagonist effect”.

`COc1ccc(Cn2c(CCc3ccccc3)nnc2[C@@H](Cc2c[nH]c3ccccc23)NC(=O)CN)cc1` [Compound 50, (R)-N-(1-(4-(4-methoxybenzyl)-5-phenethyl-4H-1,2,4-triazol-3-yl)-2-(1H-indol-3-yl)ethyl)-2-aminoacetamide]: in experiment [2] (setting [5]), the change in vivo at 2 µmol/mouse is -54%. The change in vivo at 2 µmol/mouse in experiment [2] (setting [6]) was -44%. Moreover, the change in vivo at 2 µmol/mouse in experiment [2] (setting [7]) was -44%. In addition, the change in vivo at 2 µmol/mouse in experiment [2] (setting [8]) was -28%. For the same compound, in experiment [3] (1.5 mg/kg per day s.c.), the Fat mass came to 7.6 g, the Food efficiency is recorded as 1.88 mg/kJ, the Lean mass turned out to be 21.3 g and the “Σ Fat depots” value was determined as 1101 mg. In addition, in experiment [3] (1.5 mg/kg per day s.c.), the Body weight gain stood at 1.61 g, the Cumulative food intake was 852 kJ, the Glucose was determined as 15.6 mmol/L and the Insulin was determined as 66.3 pmol/L. Also, in experiment [3] (6 mg/kg per day and 24 mg/kg per day, two weeks of treatment), the “body weight gain (in words)” value was “significantly decreased”. In experiment [3] (6.0 mg/kg per day s.c.), the Fat mass is reported as 8.2 g, the Food efficiency came out at 1.77 mg/kJ, the Lean mass amounted to 20.4 g and the “Σ Fat depots” value is 1192 mg. For the same compound, in experiment [3] (6.0 mg/kg per day s.c.), the Body weight gain was found to be 1.44 g, the Cumulative food intake was found to be 813 kJ, the Glucose was determined as 15.2 mmol/L and the Insulin came out at 64.8 pmol/L. In experiment [3] (24 mg/kg per day), the “size of the fat depots (in words)” value was “reduced”. In addition, in experiment [3] (24 mg/kg per day s.c.), the Fat mass came out at 6.3 g, the Food efficiency was -0.05 mg/kJ, the Lean mass is reported as 20.6 g and the “Σ Fat depots” value was 902 mg. In experiment [3] (24 mg/kg per day s.c.), the Body weight gain was -0.04 g, the Cumulative food intake is reported as 801 kJ, the Glucose was determined as 15.4 mmol/L and the Insulin amounted to 60.3 pmol/L.

Regarding `COc1ccc(Cn2c(CCc3ccccc3)nnc2[C@@H](Cc2c[nH]c3ccccc23)NC(=O)c2ccccn2)cc1` [Compound 79, (R)-N-(1-(4-(4-methoxybenzyl)-5-phenethyl-4H-1,2,4-triazol-3-yl)-2-(1H-indol-3-yl)ethyl)picolinamide], the “IC50 of QRFP-26 (inhibition of isoproterenol-induced lipolysis), shifted in presence of compound” value is 124.4 nM in experiment [1] (compound at 10^−7 M) and 2.829 nM in experiment [1] (compound at 10^−9 M). For the same compound, in experiment [1], the “effect on the inhibitory effect of QRFP on isoproterenol-induced lipolysis” value is recorded as “antagonist effect”.

As to `CC(C)CC(N(C)C)C1(c2ccc(Cl)cc2)CCC1` (stereo not drawn) [Sibutramine, 1-(4-chlorophenyl)-N,N-dimethyl-alpha-(2-methylpropyl)-cyclobutane-methanamine], the change in vivo at 0.6 µmol/mouse was -63% in experiment [4] (setting [5]), -66% in experiment [4] (setting [6]), -46% in experiment [4] (setting [7]) and -21% in experiment [4] (setting [8]).

The values are drawn from patent US20090042905A1, “TRIAZOLE DERIVATIVES AS LIGANDS OF G-PROTEIN COUPLED RECEPTORS” (AETERNA ZENTARIS GmbH, priority 2007, published 2009).
